From PubChem BioAssay AID328 (DTP/NCI, 2004) come the findings set out here.

Molecules are shown by their SMILES. “And” between values parts separate entries of the source, which are not always exact repeats. Identical values can stand only once. Toxic doses and inconclusive results are not listed.

Assay [1] relates to BDF1 mice, P388 leukemia ip. Description: NCI In Vivo Anticancer Drug Screen. Data for tumor model P388 Leukemia (intraperitoneal) in B6D2F1 (BDF1) mice. The following applies: endpoint: mean survival time, schedule: Q01DX009 (ip), vehicle: water, higher = longer survival. The method in brief:
(§1)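 Read-out is survival of treated animals expressed relative to the vehicle group, as a T/C ratio.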

For assay [2], the system named is BDF1 mice, P388 leukemia ip, median survival T/C. The assay is described as above. The following applies: endpoint: median survival time, higher = longer survival. The method in brief:
as §1

Setting [3] is: dose: 50.0 mg/kg/injection, schedule: Q01DX009 (ip), vehicle: saline with Tween-80.
Where [4] appears, read: dose: 100.0 mg/kg/injection, schedule: Q01DX009 (ip), vehicle: saline with Tween-80.
Setting [5] is: dose: 200.0 mg/kg/injection, schedule: Q01DX009 (ip), vehicle: saline with Tween-80.
Where [6] appears, read: dose: 100.0 mg/kg/injection, schedule: Q04DX003 (ip), vehicle: saline.
The mark [7] stands for this setting: dose: 25.0 mg/kg/injection, schedule: Q01DX009 (ip), vehicle: saline with Tween-80.
[8] abbreviates: dose: 100.0 mg/kg/injection, schedule: Q04DX003 (ip), vehicle: saline with Tween-80.
Where [9] appears, read: dose: 200.0 mg/kg/injection, schedule: Q04DX003 (ip), vehicle: saline with Tween-80.
[10] abbreviates: dose: 400.0 mg/kg/injection, schedule: Q04DX003 (ip), vehicle: saline with Tween-80.
The mark [11] stands for this setting: dose: 12.5 mg/kg/injection, schedule: Q01DX009 (ip), vehicle: saline with Tween-80.

Take `COc1cc2cnccc2cc1OCc1ccccc1`: the T/C in assay [1] (dose: 6.25 mg/kg/injection) was 95 % of control; in assay [1] (dose: 12.5 mg/kg/injection) it was 100 % of control; in assay [1] (dose: 25.0 mg/kg/injection) it was 106 % of control; in assay [1] (dose: 50.0 mg/kg/injection) it was 108 % of control; in assay [1] (dose: 100.0 mg/kg/injection), 90 % of control; in assay [1] (dose: 200.0 mg/kg/injection) it was 100 % of control.
As to `CC1(C)OCC(C2OC3OC(C)(C)OC3C2OP(=O)(N2CC2)N2CC2)O1` (stereo not drawn), the values for the T/C in assay [2] (setting [3]), in assay [2] (setting [4]) and in assay [2] (setting [5]) were 103 % of control, 115 % of control and 123 % of control, respectively.
On the same counts, the results for `CCOC(=O)C1SC(=S)N(C)C1=O` (stereo not drawn) are 94 % of control, 100 % of control and 100 % of control.
In the case of `Cc1ccc(S(=O)(=O)OCC(C)(C)NC(=O)c2ccc([N+](=O)[O-])cc2)cc1`, the T/C in assay [2] (dose: 50.0 mg/kg/injection, schedule: Q01DX001 (ip), vehicle: saline with Tween-80) is 100 % of control; in assay [2] (dose: 100.0 mg/kg/injection, schedule: Q01DX001 (ip), vehicle: saline with Tween-80) it was 105 % of control; in assay [2] (dose: 200.0 mg/kg/injection, schedule: Q01DX001 (ip), vehicle: saline with Tween-80) it was 110 % of control.
As to `CCO/C=C1\SC(=S)N(c2ccccc2C)C1=O`, the T/C in assay [2] (dose: 8.8 mg/kg/injection, schedule: Q04DX003 (ip), vehicle: saline with Tween-80) is 100 % of control; in assay [2] (dose: 13.2 mg/kg/injection, schedule: Q04DX003 (ip), vehicle: saline with Tween-80), 104 % of control; in assay [2] (dose: 20.0 mg/kg/injection, schedule: Q04DX003 (ip), vehicle: saline with Tween-80), 100 % of control; in assay [2] (dose: 25.0 mg/kg/injection, schedule: Q01DX009 (ip), vehicle: Klucel (hydroxypropylcellulose) (HPC)), 101 % of control; in assay [2] (dose: 30.0 mg/kg/injection, schedule: Q04DX003 (ip), vehicle: saline with Tween-80), 104 % of control; in assay [2] (dose: 88.0 mg/kg/injection, schedule: Q04DX003 (ip), vehicle: saline with Tween-80) it was 122 % of control. Moreover, the T/C in assay [2] (dose: 300.0 mg/kg/injection, schedule: Q04DX003 (ip), vehicle: saline with Tween-80) was 163 % of control.
Regarding `CN(CCCN(C)N=Nc1ccccc1C(=O)O)N=Nc1ccccc1C(=O)O`, the T/C was 92 % of control in assay [2] (setting [6]); 88 % of control in assay [2] (dose: 200.0 mg/kg/injection, schedule: Q04DX003 (ip), vehicle: saline); 92 % of control in assay [2] (dose: 400.0 mg/kg/injection, schedule: Q04DX003 (ip), vehicle: saline).
In the case of `COc1ccc(C(=O)CC(c2ccc3c(c2)OCO3)c2c(O)c3ccccc3oc2=O)cc1OC` (stereo not drawn), the T/C in assay [2] (setting [7]) was 91 % of control; in assay [2] (setting [3]) it was 116 % of control; in assay [2] (dose: 75.0 mg/kg/injection, schedule: Q01DX009 (ip), vehicle: saline with Tween-80), 88 % of control; in assay [2] (setting [4]), 97 % of control and 123 % of control; in assay [2] (dose: 150.0 mg/kg/injection, schedule: Q01DX009 (ip), vehicle: saline with Tween-80) it was 101 % of control; in assay [2] (setting [5]), 87 % of control.
Turning to `O=C(Nc1ccc2c(c1)OCO2)O/N=C\c1ccccn1`, the T/C was 118 % of control in assay [2] (setting [8]), 95 % of control in assay [2] (setting [9]) and 100 % of control in assay [2] (setting [10]).
Consider `O=C1c2c(Cl)cccc2C(O)(c2ccccc2)c2cccc(Cl)c21`, for which the T/C in assay [2] (dose: 50.0 mg/kg/injection, schedule: Q01DX009 (ip), vehicle: other) was 100 % of control; in assay [2] (dose: 100.0 mg/kg/injection, schedule: Q01DX009 (ip), vehicle: other), 92 % of control; in assay [2] (dose: 200.0 mg/kg/injection, schedule: Q01DX009 (ip), vehicle: other) it was 105 % of control.
Regarding `CC(=O)OC1CC(OC2C(O)CC(OC3C(O)CC(OC4CCC5(C)C(CCC6C5CCC5(C)C(C7=CC(=O)OC7)CCC65O)C4)OC3C)OC2C)OC(C)C1OC1OC(CO)C(O)C(O)C1O` (stereo not drawn), the T/C in assay [2] (dose: 5.0 mg/kg/injection, schedule: Q01DX010 (ip), vehicle: carboxymethylcellulose (CMC)) is 90 % of control.
Consider `O=C(c1ccccc1)N1C=CN(C(=O)c2ccccc2)C1c1ncc[nH]1`, for which the figures for the T/C in assay [2] (setting [3]), in assay [2] (setting [4]) and in assay [2] (setting [5]) were 105 % of control, 105 % of control and 106 % of control, respectively.
As for `Cc1cc(N2CCOCC2)nc(N2CCOCC2)c1C#N`, the T/C in assay [2] (dose: 100.0 mg/kg/injection, schedule: Q01DX005 (ip), vehicle: saline with Tween-80) was 91 % of control; in assay [2] (dose: 200.0 mg/kg/injection, schedule: Q01DX005 (ip), vehicle: saline with Tween-80), 99 % of control.
In the case of `CCC/C=C/C=C/C1CC(O)C(O)C(=O)C1C=O` (stereo not drawn), the results for the T/C in assay [2] (setting [11]), in assay [2] (setting [7]) and in assay [2] (setting [3]) were 108 % of control, 100 % of control and 101 % of control, respectively.
As for `COc1ccc(NC(=O)Oc2ccc(OC)cc2)cc1`, the T/C in assay [2] (dose: 100.0 mg/kg/injection, schedule: Q04DX003 (ip), vehicle: Klucel (hydroxypropylcellulose) (HPC)) is 95 % of control; in assay [2] (dose: 200.0 mg/kg/injection, schedule: Q04DX003 (ip), vehicle: Klucel (hydroxypropylcellulose) (HPC)), 100 % of control; in assay [2] (dose: 400.0 mg/kg/injection, schedule: Q04DX003 (ip), vehicle: Klucel (hydroxypropylcellulose) (HPC)), 91 % of control.
As to `CC/C(C)=C1\OC(=O)C(C)C(O)C(Cc2cccnc2)NC(=O)C(NC(=O)c2ncccc2O)C(C)OC1=O` (stereo not drawn), the T/C in assay [2] (dose: 3.13 mg/kg/injection, schedule: Q01DX009 (ip), vehicle: saline with Tween-80) was 97 % of control; in assay [2] (dose: 6.25 mg/kg/injection, schedule: Q01DX009 (ip), vehicle: saline with Tween-80) it was 106 % of control; in assay [2] (setting [11]) it was 103 % of control; in assay [2] (setting [7]) it was 93 % of control.
For `O=C1CCCN1`, the T/C in assay [2] (dose: 50.0 mg/kg/injection, schedule: Q01DX001 (ip), vehicle: saline) was 100 % of control; in assay [2] (dose: 50.0 mg/kg/injection, schedule: Q04DX003 (ip), vehicle: saline), 95 % of control; in assay [2] (dose: 100.0 mg/kg/injection, schedule: Q01DX001 (ip), vehicle: saline) it was 118 % of control; in assay [2] (dose: 100.0 mg/kg/injection, schedule: Q01DX009 (ip), vehicle: saline), 105 % of control; in assay [2] (setting [6]), 87 % of control; in assay [2] (dose: 200.0 mg/kg/injection, schedule: Q01DX001 (ip), vehicle: saline), 100 % of control. Further, the T/C was 110 % of control in assay [2] (dose: 200.0 mg/kg/injection, schedule: Q01DX009 (ip), vehicle: saline) and 110 % of control in assay [2] (dose: 400.0 mg/kg/injection, schedule: Q01DX009 (ip), vehicle: saline).
Regarding `O=c1[nH]c(=O)n(CCc2cccs2)cc1F`, the T/C was 106 % of control in assay [2] (setting [3]); 101 % of control in assay [2] (setting [4]); 94 % of control in assay [2] (setting [8]); 108 % of control in assay [2] (setting [5]); 108 % of control in assay [2] (setting [9]); 90 % of control in assay [2] (dose: 400.0 mg/kg/injection, schedule: Q01DX009 (ip), vehicle: saline with Tween-80). Moreover, the T/C in assay [2] (setting [10]) was 92 % of control.
